The results in this text go back to the NIST ThermoML archive (doi:10.1021/je100990n).

The conditions of this series: 293.15 K; 101.33 kPa; Liquid; Vibrating wire viscometry.

The structures appear in SMILES notation. Values joined by “and” are separate entries in the source; they are usually repeats but may differ in a detail not shown here. Equal values may be shown once. ± gives the expanded uncertainty stated by the source.

A word on the viscosity: it is the internal friction of a fluid under shear. As to `O` [water], the viscosity was 1.002 ± 0.0087 mPa·s and 1.005 ± 0.0087 mPa·s and 0.9992 ± 0.0087 mPa·s.
